Results published in patent US20250242064A1, “CXCR4-TARGETING COMPOUNDS, AND METHODS OF MAKING AND USING THE SAME” (PROVINCIAL HEALTH SERVICES AUTHORITY, priority 2022, published 2025).
Where a SMILES comes first, the peptide text is derived from it. Bridges are numbered along the chain shown (N, C = ends). Side-chain parts run from the residue outwards. [ ]: non-standard residue; d: D form. The star is where a group is joined. X4 = O=C(O)CN1CCN(CC(=O)O)CCN(CC(=O)N[C@@H](CS(=O)(=O)O)C(=O)NCCCC[C@H](NC(=O)CNC(=O)CCCc2ccc(Cl)cc2)C(=O)*)CCN(CC(=O)O)CC1; X6 = COc1ccc(CCCC(=O)NCCCC[C@H](NC(=O)[C@H](CS(=O)(=O)O)NC(=O)CN2CCN(CC(=O)O)CCN(CC(=O)O)CCN(CC(=O)O)CC2)C(=O)*)cc1; X7 = COc1ccc(CCCC(=O)NCCCC[C@H](NC(=O)CN2CCN(CC(=O)O)CCN(CC(=O)O)CCN(CC(=O)O)CC2)C(=O)*)cc1; 2Nal = N[C@@H](Cc1ccc2ccccc2c1)C(=O)O; Lys(iPr) = CC(C)NCCCC[C@H](N)C(=O)O; Cya = N[C@@H](CS(=O)(=O)O)C(=O)O

Experiment: in vivo
Set-up: species or system mice
Conditions: male, NOD.Cg-Rag1tm1Mom Il2rgtm1Wjl/SzJ (NRG), mouse, iv, total radioactivity
Method: The Z138 Mantle cell lymphoma cell line was purchased from the American Type Culture Collection (ATCC©CRL-3001). The cell line was cultured in a 5% CO2 atmosphere at 37° C. in a humidified incubator with IMDM medium supplemented with 10% fetal bovine serum, 100 I.U./mL penicillin, and 100 μg/mL streptomycin.
[^68Ga]GaCl3 was eluted from an iThemba Labs generator with a total of 4 mL of 0.1 M HCl. The eluted [^68Ga]GaCl3 solution was added to 2 mL of concentrated HCl. This radioactive mixture was then added to a DGA resin column and washed with 3 mL of 5 M HCl. The column was then dried with air and the [^68Ga]GaCl3 (0.10-0.50 GBq) was eluted with 0.5 mL of water into a vial containing a solution of the unlabeled precursor (25 μg) in 0.7 mL HEPES buffer (2 M, pH 5.3). The reaction mixture was heated in a microwave oven (Danby; DMW7700WDB) for 1 min at power setting 2. The mixture was purified by semi-prep HPLC and quality control was performed via analytical HPLC with the co-injection of the unlabeled standard with a one-twelfth of the radiotracer. Radiochemical yields (decay-corrected) were >50% and radiochemical purities were >95%.
Animal experiments were performed in accordance with guidelines established by the Canadian Council on Animal Care, under a research protocol approved by the Animal Ethics Committee of the University of British Columbia. For all studies, male NOD.Cg-Rag1tm1Momll2rgtm1Wjl/SzJ (NRG) mice were used and cells injected in a 100 μL solution of 1:1 ratio of PBS/Matrigel. For preclinical imaging and biodistribution studies, 5×10^6 cells of Z138, cells were subcutaneously inoculated on the left or right flank and tumors were grown to a size of 200-300 mm^3. […]
Under isoflurane anesthesia (2-2.5% isoflurane in 2 L/min 02), mice were injected intravenously with [^68Ga]Ga-BL34L6 or [^68Ga]Ga-BL34L7. Mice were euthanized by CO2 inhalation after anesthesia with isoflurane. Tissues were harvested, washed in PBS, patted dry, weighed, and then assayed radioactivity on a gamma counter. Counted radioactivities were converted to percentage injected dose per gram of tissue (% ID/g) using a calibration curve.

[1] = Biodistribution: Small Intestine

| Structure (SMILES) | tissue uptake at 1 h (Biodistribution: Adrenals) | tissue uptake at 1 h (Biodistribution: Blood) | tissue uptake at 1 h (Biodistribution: Bone) | tissue uptake at 1 h (Biodistribution: Brain) | tissue uptake at 1 h (Biodistribution: Heart) | tissue uptake at 1 h (Biodistribution: Kidneys) | tissue uptake at 1 h (Biodistribution: Liver) | tissue uptake at 1 h (Biodistribution: Lungs) | tissue uptake at 1 h (Biodistribution: Muscle) | tissue uptake at 1 h (Biodistribution: Pancreas) | tissue uptake at 1 h [1] | tissue uptake at 1 h (Biodistribution: Spleen) | tissue uptake at 1 h (Biodistribution: Stomach) | tissue uptake at 1 h (Biodistribution: Testes) | tissue uptake at 1 h (Biodistribution: Z138 Tumor) | tissue to tissue ratio at 1 h (Ratio Tumor-to-Blood) | tissue to tissue ratio at 1 h (Ratio Tumor-to-Bone) | tissue to tissue ratio at 1 h (Ratio Tumor-to-Kidney) | tissue to tissue ratio at 1 h (Ratio Tumor-to-Muscle) | tissue to tissue ratio at 1 h (Ratio Tumor-to-Pancreas) | further results |
| --- | --- | --- | --- | --- | --- | --- | --- | --- | --- | --- | --- | --- | --- | --- | --- | --- | --- | --- | --- | --- | --- |
| COc1ccc(CCCC(=O)NCCCC[C@H](NC(=O)CN2CCN(CC(=O)O)CCN(CC(=O)O)CCN(CC(=O)O)CC2)C(=O)N[C@@H](CS(=O)(=O)O)C(=O)NCCCC[C@@H]2NC(=O)CC[C@H](C(=O)N[C@@H](CCCCNC(C)C)C(N)=O)NC(=O)[C@@H](C)NC(=O)[C@H](Cc3ccc4ccccc4c3)NC(=O)[C@@H](CCCNC(=N)N)NC(=O)[C@H](CCCCNC(C)C)NC(=O)[C@H](Cc3ccc(O)cc3)NC2=O)cc1 [[68Ga]Ga-BL34L6, metal not drawn] (K([Cya-X7])Y[Lys(iPr)][dR][2Nal][dA][dE][Lys(iPr)]-NH2; lactam N-7) | 0.29 %ID/g | 0.83 %ID/g | 0.14 %ID/g | 0.01 %ID/g | 0.22 %ID/g | 2.07 %ID/g | 1.6 %ID/g | 0.99 %ID/g | 0.12 %ID/g | 0.12 %ID/g | 0.24 %ID/g | 0.45 %ID/g | 0.05 %ID/g | 0.26 %ID/g | 8.92 %ID/g | 11.6 | 66.5 | 4.36 | 84.6 | 75.3 |  |
| CC(C)NCCCC[C@H](NC(=O)[C@H]1CCC(=O)N[C@@H](CCCCNC(=O)[C@H](CCCCNC(=O)[C@H](CS(=O)(=O)O)NC(=O)CN2CCN(CC(=O)O)CCN(CC(=O)O)CCN(CC(=O)O)CC2)NC(=O)CNC(=O)CCCc2ccc(Cl)cc2)C(=O)N[C@@H](Cc2ccc(O)cc2)C(=O)N[C@@H](CCCCNC(C)C)C(=O)N[C@H](CCCNC(=N)N)C(=O)N[C@@H](Cc2ccc3ccccc3c2)C(=O)N[C@H](C)C(=O)N1)C(N)=O [[68Ga]Ga-BL34T1, metal not drawn] (K(X4)Y[Lys(iPr)][dR][2Nal][dA][dE][Lys(iPr)]-NH2; lactam N-7) | 2.62 %ID/g | 13.3 %ID/g | 1.04 %ID/g | 0.19 %ID/g | 3.11 %ID/g | 5.01 %ID/g | 2.9 %ID/g | 9.23 %ID/g | 0.99 %ID/g | 1.24 %ID/g | 1.31 %ID/g | 2.3 %ID/g | 0.49 %ID/g | 1.95 %ID/g | 12.2 %ID/g | 0.93 | 12.7 | 2.52 | 12.8 | 10.1 | tissue uptake at 3 h (Biodistribution: Adrenals): 1.93 %ID/g; tissue uptake at 3 h (Biodistribution: Blood): 7.55 %ID/g; tissue uptake at 3 h (Biodistribution: Bone): 1.28 %ID/g; tissue uptake at 3 h (Biodistribution: Brain): 0.16 %ID/g; tissue uptake at 3 h (Biodistribution: Heart): 1.91 %ID/g; tissue uptake at 3 h (Biodistribution: Kidneys): 4.15 %ID/g; tissue uptake at 3 h (Biodistribution: Liver): 3.02 %ID/g; tissue uptake at 3 h (Biodistribution: Lungs): 5.9 %ID/g; tissue uptake at 3 h (Biodistribution: Muscle): 0.73 %ID/g; tissue uptake at 3 h (Biodistribution: Pancreas): 0.92 %ID/g; tissue uptake at 3 h [1]: 0.89 %ID/g; tissue uptake at 3 h (Biodistribution: Spleen): 2.08 %ID/g; tissue uptake at 3 h (Biodistribution: Stomach): 0.44 %ID/g; tissue uptake at 3 h (Biodistribution: Testes): 1.71 %ID/g; tissue uptake at 3 h (Biodistribution: Z138 Tumor): 23.7 %ID/g; tissue to tissue ratio at 3 h (Ratio Tumor-to-Blood): 3.17; tissue to tissue ratio at 3 h (Ratio Tumor-to-Bone): 21.9; tissue to tissue ratio at 3 h (Ratio Tumor-to-Kidney): 5.78; tissue to tissue ratio at 3 h (Ratio Tumor-to-Muscle): 32.6; tissue to tissue ratio at 3 h (Ratio Tumor-to-Pancreas): 26 |
| CC(C)NCCCC[C@H](NC(=O)[C@@H]1CCSc2c3cccc([N+](=O)[O-])c3cn2[C@@H](CCCCNC(=O)[C@H](CS(=O)(=O)O)NC(=O)CN2CCN(CC(=O)O)CCN(CC(=O)O)CCN(CC(=O)O)CC2)C(=O)CC(Cc2ccc(O)cc2)C(=O)N[C@@H](CCCCNC(C)C)C(=O)N[C@H](CCCNC(=N)N)C(=O)N[C@@H](Cc2ccc3ccccc3c2)C(=O)N[C@H](C)C(=O)N1)C(N)=O (stereo partly shown) [[^68Ga]Ga-3NOPA-BL34L2, metal not drawn] | 0.7 %ID/g | 0.77 %ID/g | 0.56 %ID/g | 0.03 %ID/g | 0.45 %ID/g | 5.66 %ID/g | 12.5 %ID/g | 4.14 %ID/g | 0.19 %ID/g | 0.21 %ID/g | 0.58 %ID/g | 2.44 %ID/g | 0.12 %ID/g | 0.33 %ID/g | 7.97 %ID/g | 10.4 | 15.5 | 1.41 | 41.8 | 38.1 |  |
| COc1ccc(CCCC(=O)NCCCC[C@H](NC(=O)[C@H](CS(=O)(=O)O)NC(=O)CN2CCN(CC(=O)O)CCN(CC(=O)O)CCN(CC(=O)O)CC2)C(=O)NCCCC[C@@H]2NC(=O)CC[C@H](C(=O)N[C@@H](CCCCNC(C)C)C(N)=O)NC(=O)[C@@H](C)NC(=O)[C@H](Cc3ccc4ccccc4c3)NC(=O)[C@@H](CCCNC(=N)N)NC(=O)[C@H](CCCCNC(C)C)NC(=O)[C@H](Cc3ccc(O)cc3)NC2=O)cc1 [[^68Ga]Ga-BL34L7, metal not drawn] (K(X6)Y[Lys(iPr)][dR][2Nal][dA][dE][Lys(iPr)]-NH2; lactam N-7) | 0.52 %ID/g | 1.73 %ID/g | 0.4 %ID/g | 0.04 %ID/g | 0.41 %ID/g | 2.45 %ID/g | 1.24 %ID/g | 1.75 %ID/g | 0.14 %ID/g | 0.23 %ID/g | 0.34 %ID/g | 0.59 %ID/g | 0.09 %ID/g | 0.44 %ID/g | 11.1 %ID/g | 6.5 | 37.2 | 4.51 | 87.1 | 9.07 |  |
